According to US4756904A (Oak Ridge Associated Universities, Inc., priority 1986, dated 1988):

Test system: myocardium
Experimental: Sixteen closed-chest studies were performed in 6 healthy, adult mongrel dogs of both sexes weighing 15 to 30 kg. The dogs were maintained on a standard laboratory diet which was discontinued 24 hours prior to study. The animals were anesthetized using a combination of xylazine and sodium pentobarbital. Transmission cross-sectional scans of the chest area were performed on each dog with an ECAT II scanner using a ^68 Ge ring source with medium resolution filters and standard shadow shields. Measured attenuation coefficients were used for reconstructing the emission tomographs. […] Serial scans of the heart from base to apex in 10-15 mm steps were made starting 3-5 minutes after injection. After each series was completed, the ECAT II bed was returned to the original position and the dogs were rescanned. This procedure was repeated over a 2 to 4 hour period. Each set of scans required approximately 1 hour for 6 slices, so that 2 to 4 sets of images were obtained in each study. Sequential images were also obtained through a 20-mm section of the heart over a 2-hour period. Additional images from 1 dog were obtained using the new high-resolution ECAT III scanner. […] The animals were injected through a cannula or catheter in the leg and heparanized venous blood samples were removed from the opposite side. Known aliquots of whole blood, plasma, and erythrocytes were assayed in a well-type scintillation counter to determine the ^64 Cu levels present in the different components.

How did the “image quality with the PET” value (^64 Cu citrate, PET) turn out when copper-64 citrate [^64 Cu citrate] was run?
The value was “unexpectedly distinct image”.

What about the “useful images of the myocardium” value (dog) of the same substance?
The value was “yields useful images of the myocardium”.

What about the “uptake by the myocardium” value (dog, intravenous, tomographic images) of the same substance?
Its value is “rapid and uniform uptake of the compound throughout the myocardium”.

And the “uptake by myocardial tissue over time” value (dog, over the time periods studied)?
The value was “occurs quite rapidly and remains constant over the time periods studied”.

And the “visibility of the left ventricle in the emission scan” value (dog, transverse section)?
The value was “very distinctly”.

What about the “visibility of the right ventricle in the emission scan” value (dog, transverse section) of the same substance?
The value was “less clearly seen”.
